Experiments:
[1] = biological target: T1, recombinant human 5-HT5A receptor (Homo sapiens, UniProt P47898); test: [3H]LSD radioligand binding assay, membranes of HEK-EBNA cells transiently expressing the receptor; settings: [3H]LSD approx. 1 nM, 120 min room temperature, Ki from IC50 by Cheng-Prussoff equation, read-out: Ki (affinity towards the human 5-HT5A receptor)
T1 construct: expressed in transfected cells; host or cells: HEK-EBNA (Human Embryonic Kidney-EBNA) cells, transient transfection; membranes
Procedure: A [^3H] LSD radioligand binding assay was used to determine the affinity of the compounds for the recombinant human 5-HT5A receptor, in membranes from transiently (cDNA) expressed 5-HT5A receptors in Human Embryonic Kidney-EBNA (HEK-EBNA) cells.
Assay buffer consisted of Tris (50 mM) buffer containing 1 mM EGTA, 10 mM MgCl2 (pH 7.4) and 10 μM pargyline. The binding assay was carried out in 96-well-plates in the presence of [^3H]LSD (approximately 1 nM), approximately 2 μg/well of membrane protein, and 0.5 mg of Ysi-poly-1-lysine SPA beads in a final volume of 200 μl of buffer. Non-specific binding was defined using methiothepin 2 μM. Compounds were tested at 10 concentrations. All assays were conducted in duplicate and repeated at least two times. Assay plates were incubated for 120 min at room temperature before centrifugation. Bound ligand was determined using a Packard Topcount scintillation counter. IC50 values were calculated using a non-linear curve fitting program and Ki values calculated using the Cheng-Prussoff equation.

T1 sequence (P47898 whole entry): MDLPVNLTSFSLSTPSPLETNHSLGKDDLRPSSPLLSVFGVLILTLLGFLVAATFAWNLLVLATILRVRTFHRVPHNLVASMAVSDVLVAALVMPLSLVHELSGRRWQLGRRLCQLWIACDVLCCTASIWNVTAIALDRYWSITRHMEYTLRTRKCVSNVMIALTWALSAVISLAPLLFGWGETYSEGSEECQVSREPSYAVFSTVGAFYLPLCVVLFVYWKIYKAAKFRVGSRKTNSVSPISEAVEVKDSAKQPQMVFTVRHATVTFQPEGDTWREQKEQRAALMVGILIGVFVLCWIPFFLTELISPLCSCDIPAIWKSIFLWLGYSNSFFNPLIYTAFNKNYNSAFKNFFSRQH

Ki [1] [nM]	melting point [°C]	Compound
22		Cc1ccc(CNc2cc(N)c3cc(NCc4ccccc4)ccc3n2)o1 [Example 55, N6-Benzyl-N2-(5-methyl-furan-2-ylmethyl)-quinoline-2,4,6-triamine]
37		COc1cccc(CNc2ccc3cc(NCc4cccnc4)ccc3n2)c1 [Example 57, N2-(3-Methoxy-benzyl)-N6-pyridin-3-ylmethyl-quinoline-2,6-diamine]
27		c1cncc(CNc2ccc3nc(NCc4cccc5c4OCO5)ccc3c2)c1 [Example 73, N2-Benzo[1,3]dioxol-4-ylmethyl-N6-pyridin-3-ylmethyl-quinoline-2,6-diamine]
	217	COc1ccccc1CNC(=O)c1ccc2nc(NCc3ccccc3OC)ccc2c1 [Example 76, 2-(2-Methoxy-benzylamino)-quinoline-6-carboxylic acid 2-methoxy-benzylamide]
30		COc1ccc(NC(=O)Nc2ccc3nc(NCc4ccccc4OC)ccc3c2)cc1 [Example 79, 1-[2-(2-Methoxy-benzylamino)-quinolin-6-yl]-3-(4-methoxy-phenyl)-urea]
40		COc1ccccc1CNc1ccc2cc(NS(=O)(=O)Nc3ccc(F)cc3)ccc2n1 [Example 81, N-(4-fluorophenyl)-N′-{2-[(2-methoxybenzyl)amino]quinolin-6-yl}sulfamide]
	175	COc1ccccc1CNc1ccc2cc(Nc3ncccn3)ccc2n1 [Example 84, N2-(2-Methoxy-benzyl)-N6-pyrimidin-2-yl-quinoline-2,6-diamine]
	183	COc1ccccc1CNc1ccc2cc(Nc3nnc(C)o3)ccc2n1 [Example 85, N2-(2-Methoxy-benzyl)-N6-(5-methyl-[1,3,4]oxadiazol-2-yl)-quinoline-2,6-diamine]
	175	COc1ccccc1CNc1ccc2cc(Nc3nc(C)no3)ccc2n1 [Example 86, N2-(2-Methoxy-benzyl)-N6-(3-methyl-[1,2,4]oxadiazol-5-yl)-quinoline-2,6-diamine]
44	190	CCn1nnc(Nc2ccc3nc(NCc4ccccc4OC)ccc3c2)n1 [Example 87, N6-(2-Ethyl-2H-tetrazol-5-yl)-N2-(2-methoxy-benzyl)-quinoline-2,6-diamine]
26	132	COc1ccccc1CNc1ccc2cc(Nc3cc(C)on3)ccc2n1 [Example 88, N2-(2-Methoxy-benzyl)-N6-(5-methyl-isoxazol-3-yl)-quinoline-2,6-diamine]
	157.5	COc1ccccc1CNc1ccc2cc(Nc3nc(C)cc(C)n3)ccc2n1 [Example 89, N6-(4,6-Dimethyl-pyrimidin-2-yl)-N2-(2-methoxy-benzyl)-quinoline-2,6-diamine]
33	125	COc1ccccc1CNc1ccc2cc(Nc3nccc(C)n3)ccc2n1 [Example 90, N2-(2-Methoxy-benzyl)-N6-(4-methyl-pyrimidin-2-yl)-quinoline-2,6-diamine]
	163	COc1ccccc1CNc1ccc2cc(Nc3ncccc3C)ccc2n1 [Example 91, N2-(2-Methoxy-benzyl)-N6-(3-methyl-pyridin-2-yl)-quinoline-2,6-diamine]
34	134	COc1ccccc1CNc1ccc2cc(Nc3ccccn3)ccc2n1 [Example 92, N2-(2-Methoxy-benzyl)-N6-pyridin-2-yl-quinoline-2,6-diamine]
	134	COc1ccccc1CNc1ccc2cc(Nc3cccc(C)n3)ccc2n1 [Example 93, N2-(2-Methoxy-benzyl)-N6-(6-methyl-pyridin-2-yl)-quinoline-2,6-diamine]
30	114	COc1ccccc1CNc1ccc2cc(Nc3nccc(C(F)(F)F)n3)ccc2n1 [Example 94, N2-(2-Methoxy-benzyl)-N6-(4-trifluoromethyl-pyrimidin-2-yl)-quinoline-2,6-diamine]
	156	COc1ccccc1CNc1ccc2cc(Nc3nnn(C(C)(C)C)n3)ccc2n1 [Example 95, N6-(2-tert-Butyl-2H-tetrazol-5-yl)-N2-(2-methoxy-benzyl)-quinoline-2,6-diamine]
47	199	COc1ccccc1CNc1ccc2cc(Nc3nnc(C4CC4)o3)ccc2n1 [Example 96, N6-(5-Cyclopropyl-[1,3,4]oxadiazol-2-yl)-N2-(2-methoxy-benzyl)-quinoline-2,6-diamine]
	198	COc1ccccc1CNc1ccc2cc(Nc3nnc(C(F)(F)F)o3)ccc2n1 [Example 97, N2-(2-Methoxy-benzyl)-N6-(5-trifluoromethyl-[1,3,4]oxadiazol-2-yl)-quinoline-2,6-diamine]
	144	COc1ccccc1CNc1ccc2cc(Nc3nc(C(F)(F)F)co3)ccc2n1 [Example 98, N2-(2-Methoxy-benzyl)-N6-(4-trifluoromethyl-oxazol-2-yl)-quinoline-2,6-diamine]
	166	COc1ccccc1CNc1ccc2cc(Nc3ncc(C(F)(F)F)o3)ccc2n1 [Example 99, N2-(2-Methoxy-benzyl)-N6-(5-trifluoromethyl-oxazol-2-yl)-quinoline-2,6-diamine]
	205	COc1ccccc1CNc1ccc2cc(Nc3ncco3)ccc2n1 [Example 100, N2-(2-Methoxy-benzyl)-N6-oxazol-2-yl-quinoline-2,6-diamine]
	151	COc1ccccc1CNc1ccc2cc(Nc3cccc(C(F)(F)F)n3)ccc2n1 [Example 101, N2-(2-Methoxy-benzyl)-N6-(6-trifluoromethyl-pyridin-2-yl)-quinoline-2,6-diamine]
	220	COc1ccccc1CNc1ccc2cc(Nc3nc4cc(C)ccc4o3)ccc2n1 [Example 102, N2-(2-Methoxy-benzyl)-N6-(5-methyl-benzooxazol-2-yl)-quinoline-2,6-diamine]
25		COc1ccccc1CNc1ccc2cc(Nc3cccc(CCO)c3)ccc2n1 [Example 103, 2-{3-[2-(2-Methoxy-benzylamino)-quinolin-6-ylamino]-phenyl}-ethanol]

Compound	Ki [1] [nM]	melting point [°C]
COc1ccc(OC(=O)Nc2ccc3nc(NCc4ccccc4OC)ccc3c2)cc1 [Example 80, [2-(2-Methoxy-benzylamino)-quinolin-6-yl]-carbamic acid 4-methoxy-phenyl ester]	87	

Reference: US8399674B2, “Quinolines” (Hoffman-La Roche Inc., priority 2007, dated 2013)
